The test system of this assay is STING (IRF pathway reporter in THP1-Dual™ cells, THP-1 (HAQ)). Description: Reporter gene expression assay in THP-1 cells (THP1-Dual, IRF pathway Lucia luciferase, 2′,3′-cGAMP stimulation). Type of assay: cell-based, human. The settings on record: Homo sapiens, 10 min preincubation, 5 μM 2′,3′-cGAMP, 20 hr, IRF pathway luciferase (QUANTI-Luc), IC50 range class. Here is the method: THP1-Dual™ cells (Invivogen) were derived from the human THP-1 monocyte cell line by stable integration of two inducible reporter constructs. As a result, THP1-Dual™ cells allow the simultaneous study of the IRF pathway, by assessing the activity of a secreted luciferase (Lucia) and the NF-κB pathway, by monitoring the activity of secreted SEAP. 5×10^4 THP1-Dual™ cells were seeded in 384-well plates in growth medium and preincubated with novel compounds for 10 minutes followed by stimulation with 5 μM 2′,3′-cGAMP. After 20 hr of stimulation the supernatant was removed and the IRF pathway reporter protein was readily measured in the cell culture supernatant using QUANTI-Luc™ (Invivogen), a luciferase detection reagent on a Spectramax i3X luminometer.
In the tables below, IC50 value ranges for exemplary compounds are given. The IC50 ranges are indicated as “A” for values less than or equal to 1 μM, “B” for values greater than 1 μM and less than or equal to 10 μM, and “C” for values greater than 10 μM.

Molecules are shown by their SMILES.

One may read the IC50 as the concentration that inhibits the measured activity by half. Higher therefore signals weaker potency in that assay.

As to `CN(C(=O)CC(NC(=O)Nc1ccc2cc[nH]c2c1)c1ccc2c(c1)N(Cc1ccccc1)CCS2)C1CC1` (stereo not drawn) [Example 32, 3-(3-(1H-indol-6-yl)ureido)-3-(4-benzyl-3,4-dihydro-2H-benzo[b][1,4]thiazin-6-yl)-N-cyclopropyl-N-methylpropanamide], the IC50 was over 10 µM.
In the case of `COCCN(C)C(=O)CC(NC(=O)Nc1ccc2cc[nH]c2c1)c1ccc2c(c1)N(Cc1ccccc1)CCS2` (stereo not drawn) [Example 33, 3-(3-(1H-indol-6-yl)ureido)-3-(4-benzyl-3,4-dihydro-2H-benzo[b][1,4]thiazin-6-yl)-N-(2-methoxyethyl)-N-methylpropanamide], the IC50 is 1 to 10 µM.
The same measure for `O=C(CC(NC(=O)Nc1ccc2cc[nH]c2c1)c1ccc2c(c1)N(Cc1ccccc1)CCS2)Nc1cccnc1` (stereo not drawn) [Example 34, 3-(3-(1H-indol-6-yl)ureido)-3-(4-benzyl-3,4-dihydro-2H-benzo[b][1,4]thiazin-6-yl)-N-(pyridin-3-yl)propanamide]: over 10 µM.
As for `O=C(CC(NC(=O)Nc1ccc2cc[nH]c2c1)c1ccc2c(c1)N(Cc1ccccc1)CCS2)NCCO` (stereo not drawn) [Example 35, 3-(3-(1H-indol-6-yl)ureido)-3-(4-benzyl-3,4-dihydro-2H-benzo[b][1,4]thiazin-6-yl)-N-(2-hydroxyethyl)propanamide], the half-inhibitory concentration (IC50) lay within 1 to 10 µM.
Regarding `C=CCC(NC(=O)Nc1ccc2cc[nH]c2c1)c1ccc2c(c1)N(Cc1c(F)cccc1Cl)CCS2` (stereo not drawn) [Example 36, 1-(1-(4-(2-chloro-6-fluorobenzyl)-3,4-dihydro-2H-benzo[b][1,4]thiazin-6-yl)but-3-en-1-yl)-3-(1H-indol-6-yl)urea], the IC50 is at most 1 µM.
The same measure for `C=CCC(NC(=O)Nc1c[nH]c2ccccc12)c1ccc2c(c1)N(Cc1ccccc1)CCS2` (stereo not drawn) [Example 37, 1-(1-(4-benzyl-3,4-dihydro-2H-benzo[b][1,4]thiazin-6-yl)but-3-en-1-yl)-3-(1H-indol-3-yl)urea]: 1 to 10 µM.

The values are drawn from US20240360119A1, “SMALL MOLECULE UREA DERIVATIVES AS STING ANTAGONISTS” (CURADEV PHARMA PVT. LTD., priority 2021, published 2024).
